Values joined by “and” are separate entries in the source; they are usually repeats but may differ in a detail not shown here. Equal entries are not always repeated.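 Cells were grown in 96-well plates and exposed to each compound for 48 hours at five concentrations; endpoints were interpolated linearly between bracketing concentrations, or set to the highest concentration if not reached. GI50: concentration for 50% inhibition of growth. At the TGI there is no net growth.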 Where a SMILES comes first, the peptide text is derived from it. [ ]: non-standard residue; d: D form. The star is where a group is joined. ξ: configuration not given here. NMeY = CN[C@@H](Cc1ccc(O)cc1)C(=O)O; Cbz = O=C(OCc1ccccc1)*; ξA = CC(N)C(=O)O
Legend:
Test in all cases: NCI-60 cell line screen, 48 h
[1] = test system: LOX IMVI melanoma
[2] = test system: MDA-N
[3] = test system: NCI-H522 lung
[4] = test system: SK-MEL-2 melanoma
[5] = test system: SK-MEL-28 melanoma
[6] = test system: SK-MEL-5 melanoma
[7] = test system: SR leukemia
[8] = test system: SW-620 colon
[9] = test system: TK-10 renal
[10] = test system: UACC-62 melanoma

SMILES	TGI [1]	TGI [2]	TGI [3]	TGI [4]	TGI [5]	TGI [6]	TGI [7]	TGI [8]	TGI [9]	TGI [10]	GI50 [2]	GI50 [3]	GI50 [6]	GI50 [8]	GI50 [10]	GI50 [1]	GI50 [4]	GI50 [5]	GI50 [7]	GI50 [9]
COc1cc(C(=O)Nc2nnc(S(N)(=O)=O)s2)cc(OC)c1OC	> 100 µM	> 100 µM	> 100 µM	> 100 µM	> 100 µM	> 100 µM	> 100 µM	> 100 µM	> 100 µM	> 100 µM										
O=c1oc2ccccc2cc1-c1nc2ccc([N+](=O)[O-])cc2o1	> 100 µM	> 100 µM	> 100 µM	> 100 µM	> 100 µM	> 100 µM	> 100 µM	> 100 µM	> 100 µM	> 100 µM										
O=C(Cc1nc2ccc(C(=O)c3ccccc3)cc2[nH]c1=O)C(=O)Nc1ccccc1[N+](=O)[O-]	> 100 µM	> 100 µM	> 100 µM	> 100 µM	> 100 µM	> 100 µM	> 100 µM	> 100 µM	> 100 µM	> 100 µM										
CC(C)=CC(=O)O[C@@H]1CC(C)(C)CC2C3=CCC4[C@]56CC[C@](O)(OC5)C(C)(C)C6CC[C@@]4(C)C3(C)CC[C@]21C(=O)O (stereo not given in full)	44.4 µM	> 100 µM	> 100 µM	> 100 µM	> 100 µM	> 100 µM	> 100 µM	> 100 µM	> 100 µM	> 100 µM										
Cn1c(N)c(/C=N/NC(=O)CC#N)c(=O)n(C)c1=O	> 100 µM	> 100 µM	> 100 µM	> 100 µM	> 100 µM	> 100 µM	> 100 µM	> 100 µM	> 100 µM	> 100 µM										
O=C1CSC2(CC(/C=C/C=C/c3ccccc3)=NN2c2cccc(S(=O)(=O)O)c2)N1c1nc2ccccc2s1 (stereo not given)	42.2 µM	> 100 µM	> 100 µM	> 100 µM	> 100 µM	> 100 µM	60.1 µM	> 100 µM	> 100 µM	> 100 µM										
CCCCC[C@H](O)[C@H](C)C=C1SCCCS1	> 100 µM	> 100 µM	> 100 µM	> 100 µM	> 100 µM	> 100 µM	> 100 µM	> 100 µM	> 100 µM	> 100 µM										
O=C1CCC2(CC1)Cc1ccccc1C2O (stereo not given)	> 100 µM	> 100 µM	> 100 µM	> 100 µM	> 100 µM	> 100 µM	> 100 µM	> 100 µM	> 100 µM	> 100 µM										
CCOC(=O)C1C/C(C)=C(/C)SCCCS1 (stereo not given)	> 100 µM	> 100 µM	41.5 µM	> 100 µM	> 100 µM	> 100 µM	> 100 µM	> 100 µM	> 100 µM	> 100 µM										
CCCCCCCCCCCCC(=O)NCC(=O)NC(Cc1ccccc1)C(=O)Oc1ccc([N+](=O)[O-])cc1 (stereo not given)	> 100 µM	> 100 µM	81 µM	> 100 µM		> 100 µM	> 100 µM	> 100 µM	> 100 µM	> 100 µM										
Cc1[nH]c(=O)nc(N/N=C/c2ccc(Cl)c(Cl)c2)c1C(=O)Nc1ccc(Cl)c(Cl)c1	> 57 µM	39.7 µM	44.7 µM	49.9 µM	23.4 µM	22.8 µM	> 100 µM	> 30 µM	28 µM	41.2 µM										
CCOC(=O)CCC(NC(=O)OCc1ccccc1)C(=O)NNC(=O)OC(C)(C)C (stereo not given)	> 100 µM	> 100 µM	> 100 µM	> 100 µM	> 100 µM	> 100 µM	> 100 µM	> 100 µM	> 100 µM	> 100 µM										
Cc1cs/c(=N\C(P(=O)(O)O)P(=O)(O)O)n1C	> 100 µM	> 100 µM	> 100 µM		> 100 µM	> 100 µM	> 100 µM	> 100 µM	> 100 µM	> 100 µM										
COc1ccc(C[C@@H](C(=O)NCC(N)=O)N(C)C(=O)[C@@H]2CCCN2C(=O)[C@H](CC(C)C)NC(=O)C(C)NC(=O)OCc2ccccc2)cc1 (stereo not given in full) (Cbz-[ξA]LP[NMeY](Me)G-NH2)	> 100 µM	> 100 µM	> 100 µM	> 100 µM	> 100 µM	> 100 µM	> 100 µM	> 100 µM	> 100 µM	> 100 µM										
CC1(C)OC[C@@H](/C=C\CCO[Si](c2ccccc2)(c2ccccc2)C(C)(C)C)N1C(=O)c1ccccc1	28.6 µM	> 100 µM	18.8 µM	19.6 µM	> 100 µM	12 µM	23.7 µM	> 100 µM	> 100 µM	33.1 µM										
O=C(Nc1cccc2nsnc12)c1cc2c(cc1Cl)Sc1nccn1S2(=O)=O	> 63.8 µM	34.3 µM	32.3 µM	26.4 µM	8.86 µM	38.5 µM	> 21.8 µM	> 60.7 µM	16.3 µM	17.6 µM										

SMILES	TGI [1]	TGI [2]	TGI [3]	TGI [4]	TGI [5]	TGI [6]	TGI [7]	TGI [8]	TGI [9]	TGI [10]	GI50 [2]	GI50 [3]	GI50 [6]	GI50 [8]	GI50 [10]	GI50 [1]	GI50 [4]	GI50 [5]	GI50 [7]	GI50 [9]
c1ccc2c(c1)CC1c3[nH]c4ccccc4c3CCN21 (stereo not given)	> 10 µM	> 10 µM	> 10 µM	> 10 µM	> 10 µM	> 10 µM	> 10 µM	> 10 µM	> 10 µM	> 10 µM										
COc1ccc(Cn2nc(OCc3ccccn3)c3cc([N+](=O)[O-])ccc32)cc1	> 100 µM	> 100 µM	> 100 µM	> 100 µM	> 100 µM	> 100 µM	> 100 µM	> 100 µM	> 100 µM	> 100 µM										
OC(CC(c1ccccc1)c1ccc(Cl)cc1)c1ccc(Cl)cc1 (stereo not given)	77.2 µM	> 100 µM	69.1 µM	49.8 µM	> 100 µM	88.1 µM	73.5 µM	> 100 µM	> 100 µM	> 100 µM										
CN(C)c1ccc(-c2nc(-c3cc4c(ccc5ccccc54)oc3=O)cs2)cc1	> 100 µM	> 100 µM	> 100 µM	> 100 µM	> 100 µM	> 100 µM	> 100 µM	> 100 µM	> 100 µM	> 100 µM										
C/C(=N\N=C(N)N)c1c(C(=O)OCCCCCCOC(=O)c2nc3sccn3c2/C(C)=N/N=C(N)N)nc2sccn12	> 100 µM	> 100 µM	> 100 µM	> 100 µM	> 100 µM	> 100 µM	41.2 µM	> 100 µM	55.1 µM	> 100 µM										
CC(=O)N(C(C)=O)n1c(Cc2ccc(Cl)cc2)nn(C(C)=O)c1=O	> 100 µM	> 100 µM	> 100 µM	> 100 µM	> 100 µM	> 100 µM	> 100 µM	> 100 µM	> 100 µM	> 100 µM										
Cc1ccc(Nc2nc(=O)[nH]c(=O)[nH]2)cc1N	> 100 µM	> 100 µM	> 100 µM	> 100 µM	> 100 µM	> 100 µM	> 100 µM	> 100 µM	> 100 µM	> 100 µM										
CCCCCCCCCCCCCCCCP(=O)(O)OP(=O)(O)OCC1OC(n2ccc(N)nc2=O)C(O)C1O (stereo not given)	> 100 µM	> 100 µM	> 100 µM	> 100 µM	> 100 µM	> 100 µM and 34.3 µM	23.7 µM	> 100 µM and 59 µM	> 100 µM	> 100 µM	> 100 µM and 40.4 µM	> 100 µM and 24.6 µM	> 100 µM and 11.2 µM	> 100 µM and 14.4 µM	44.5 µM and 9.63 µM					
O=C1c2cc(Cl)ccc2-n2c(noc2=O)C2CSCN12 (stereo not given)	> 100 µM	> 100 µM	> 100 µM	> 100 µM	> 100 µM	> 100 µM	> 100 µM	> 100 µM	> 100 µM	> 100 µM										
CC1=NN(c2ccc(C)cc2)C2(C1)SCC(=O)N2c1nc2ccccc2s1 (stereo not given)	76.2 µM	70.2 µM	52.6 µM	61.1 µM	> 100 µM	24.2 µM	28.1 µM	> 100 µM	74.4 µM	45.6 µM										
CCOC(=O)c1cc(-c2ccc(OC)c(OC)c2)c[nH]1	> 10 µM	> 10 µM	> 10 µM	> 10 µM	> 10 µM	> 10 µM	> 10 µM		> 10 µM	> 10 µM										
C=C[C@]1(C)CC[C@]2(C)C(CC[C@@]3(C)C2C[C@H](O)[C@H](O)[C@@]3(C)O)C1 (stereo not given in full)	> 100 µM	> 100 µM	> 100 µM	> 100 µM	> 100 µM	> 100 µM	> 100 µM	> 100 µM	> 100 µM	> 100 µM										
COc1ccc(N2C(=O)C3c4[nH]c5ccc(C)cc5c4C4CCC(C(C)C)CC4C3C2=O)cc1 (stereo not given)	> 100 µM	> 100 µM	> 100 µM	> 100 µM	> 100 µM	> 100 µM	> 100 µM	> 100 µM	> 100 µM	> 100 µM										
CSc1c(C(C)=O)c(O)n(-c2ccc(Cl)cc2)c(=O)c1C#N	> 100 µM	> 100 µM	21.9 µM	> 100 µM	> 100 µM	> 100 µM	> 100 µM	> 100 µM	> 100 µM	> 100 µM										
O=[N+]([O-])c1ccc2nc3ccc([N+](=O)[O-])cn3c2c1	> 100 µM	> 100 µM	65.5 µM	> 100 µM	> 100 µM	> 100 µM	> 100 µM	> 100 µM	> 100 µM	> 100 µM										
Oc1ccc2ccccc2c1-c1nnc(CCCCCCCCc2nnc(-c3c(O)ccc4ccccc34)o2)o1	25 µM and > 100 µM		5.82 µM and 24.2 µM	25 µM and > 100 µM	> 68.5 µM	8.59 µM and 44.2 µM	25 µM and 11.9 µM	25 µM and > 43.2 µM	> 100 µM	25 µM and > 100 µM	2.67 µM	1.53 µM	3.15 µM		2.54 µM	437 nM	4.88 µM	> 25 µM	1600 nM and 280 nM	> 25 µM

Reference: PubChem BioAssay (NCI)
